# Assay results as given in patent US20120020940A1, “ANTIMICROBIAL PEPTIDES” (Helmholtz Zentrum München Deutsches Forschungszentrum Für …, priority 2008, published 2012).
# Like-named read-outs stand apart in the source and are kept apart here. No end group written: not given here.
# Experiments:
# Yersinia enterocolitica = assay type: cell-based
# Procedure: (§1) In-vitro inhibition assays were performed in sterile ELISA-plates (Greiner bio-one, Frickenhausen or Nunc, Wiesbaden). Antimicrobial peptides were dissolved in 0.01% acetic acid containing 0.2% BSA and stored at −20° C. […] After incubation for one day at 27° C. growth inhibition of the bacteria was analyzed by a ELISA microplate reader.
# Escherichia coli (DH5α) = assay type: cell-based
# Procedure: as §1
# Pseudomonas aeruginosa = assay type: cell-based
# Procedure: as §1
# [1] = tested on: Staphylococcus epidermidis; assay type: cell-based
# Procedure: as §1
# Staphylococcus aureus = assay type: cell-based
# Procedure: as §1
# [2] = tested on: Clavibacter michiganensis; test: MIC and lethal concentration (Example 3); assay type: cell-based; details: Table 2; for MIC (>90% inhibition): 1-2 days at 25° C.; for LC, lethal concentration (100% inhibition): at least 4 days of incubation
# Procedure: (§2) In-vitro inhibition assays were performed in sterile flat-bottom 96-well plates (Greiner bio-one, Frickenhausen). Antimicrobial peptides were dissolved in 0.01% acetic acid containing 0.2% BSA (500 μg/ml), filter sterilized and stored at −20° C. For inhibition assays dilutions of peptides ranging from 5 to 200 μg/ml were prepared and 10 μl (antibacterial assay) or 20 μl (antifungal assay) of each concentration was loaded per well.
# (§3) Bacteria colonies from overnight agar plate cultures were resuspended into 5 ml LB-medium or HPG-medium (OD600 nm=0.08-0.1) and diluted into LB-medium/HPG-medium (1:100). 90 μl of this suspension containing about 10^5-10^6 CFU/ml of tested bacteria were added to each well resulting in final peptide concentrations of 0, 0.5, 1, 2, 5, 10, and 20 μg/ml. […] The lowest concentration, in which there is no observable growth (>90% inhibition) is referred to as minimal inhibitory concentration (MIC). […] For each peptide concentration two identical inhibition assays were performed.
# [3] = tested on: Pseudomonas syringae pv. syringae; test: MIC and lethal concentration (Example 3); assay type: cell-based; details: Table 2; for MIC (>90% inhibition): 1-2 days at 25° C.; for LC, lethal concentration (100% inhibition): at least 4 days of incubation
# Procedure: as §2, §3
# [4] = tested on: Pseudomonas syringae pv. tomato; test: MIC and lethal concentration (Example 3); assay type: cell-based; details: Table 2; for MIC (>90% inhibition): 1-2 days at 25° C.; for LC, lethal concentration (100% inhibition): at least 4 days of incubation
# Procedure: as §2, §3
# Pseudomonas corrugata [5] = test: MIC and lethal concentration (Example 3); assay type: cell-based; details: Table 2; for MIC (>90% inhibition): 1-2 days at 25° C.; for LC, lethal concentration (100% inhibition): at least 4 days of incubation
# Procedure: as §2, §3
# [6] = tested on: Pectobacterium carotovorum; test: MIC and lethal concentration (Example 3); assay type: cell-based; details: Table 2; for MIC (>90% inhibition): 1-2 days at 25° C.; for LC, lethal concentration (100% inhibition): at least 4 days of incubation
# Procedure: as §2, §3
# Xanthomonas vesicatoria [7] = test: MIC and lethal concentration (Example 3); assay type: cell-based; details: Table 2; for MIC (>90% inhibition): 1-2 days at 25° C.; for LC, lethal concentration (100% inhibition): at least 4 days of incubation
# Procedure: as §2, §3
# [8] = tested on: Pseudomonas syringae pv. tomato
# Enterobacter cloacae = assay type: cell-based
# Procedure: as §1
# Klebsiella pneumoniae = assay type: cell-based
# Procedure: as §1
# Klebsiiella oxytoca = assay type: cell-based
# Procedure: as §1
# Botrytis cinerea = test: MIC, antifungal in-vitro inhibition assay (Example 2); assay type: cell-based; details: Table 1
# Procedure: as §2
# (§4) Spores of fungi were collected by water washes of sporulating cultures grown on 2% malt extract agar and spore concentration was determined by microscopy. The concentration of the spores was adjusted to 1.5-2×10^3 spores/ml in 2% malt extract medium and 80 μl of fungal spores were added per well. The final peptide concentrations used in the fungal inhibition assays were […]. After overnight incubation at room temperature the plate were put on a rotary shaker (300 rpm) for further two days to ensure consistantly growth. Antifungal effects of the peptides were determined by a microplate reader (Alternaria, Fusarium) at OD590 nm or by visual screening of the plates (Botrytis, Cladosporium).
# (§5) The lowest peptide concentration leading to complete inhibition of bacterial growth or spore germination/mycelial growth (minimal inhibition concentration, MIC) was determined for each organism-peptide combination. For each peptide concentration two identical inhibition assays were performed.
# Cladosporium herbarum = test: as above; assay type: cell-based; details: Table 1
# Procedure: as §2, §4, §5
# Alternaria alternata = test: as above; assay type: cell-based; details: Table 1
# Procedure: as §2, §4, §5
# [9] = tested on: Pectobacterium carotovorum sub. carotovorum
# [10] = tested on: Pseudomonas syringae pv. syringae
# Pseudomonas corrugata [11] = tested on: Pseudomonas corrugata
# [12] = tested on: Clavibacter michiganensis sub. michiganensis; details: overnight 25° C., Table 1
# Xanthomonas vesicatoria [13] = tested on: Xanthomonas vesicatoria
# HeLa cells = test: Cell viability, mitochondrial dehydrogenase activity; assay type: cell-based; details: at the IC50 concentration (6.8 μM)
# Procedure: (§6) Antimicrobial oligopeptides were dissolved in 0.01% acetic acid containing 0.2% BSA (500 μg/ml), filter sterilized and stored at −20° C. […] (in 5% CO2). Afterwards, virus particles were added to the pre-treated HeLa cells and the infection was quantified by measuring red fluorescence with a fluorescence microplate reader after 72 h incubation. The viability of the HeLa cells was determined by measuring the activity of the mitochondrial dehydrogenase according to Lindl and Bauer (1994) and Mosmann (1983).
# [14] = tested on: human immundeficiency virus (HIV); assay type: cell-based; details: HeLa cells LC5-RIC pre-incubated 30 min with peptide, read after 72 h; read-out: IC50, concentration where the infection is decreased by 50% (compared to non-treated controls)
# Procedure: To measure the activity of the designed oligopeptides against human immundeficiency virus (HIV) a fluorescence-based reporter system was used. HeLa cells (LC5-RIC) harbour a reporter gene, which regulates in dependency of HIV Rev and Tat proteins the synthesis of a red fluorescing protein. In this way the infection of the HeLa cells (LC5-RIC) is indicated and the infection rate can be quantified using a fluorescence microplate reader.
# as §6
# human erythrocytes = test: Hemolytic activity, hemoglobin release; assay type: cell-based; details: 45 min at 37° C., Table 3
# Procedure: The hemolytic activity of the peptides was evaluated by determining hemoglobin release of suspensions of fresh human erythrocytes at 405 nm. Human red blood cells were centrifuged and washed three times with Tris-buffer (10 mM Tris, 150 mM NaCl, pH 7.4). Eighty μl of human red blood cells (1.5×10^9/ml) were added to 20 μl of the peptides solution (peptides dissolved in 0.2% BSA, 0.01% HAc) in 96-well plates (Greiner bio-one, Frickenhausen) and incubated for 45 min at 37° C. The endconcentration of the peptides were 0, 20, 50, 100 and 200 μg/ml. After centrifugation (1500×g, 5 min, 20° C.) 30 μl aliquots of the supernatant were transferred to 96-well plates containing 100 μl water. Hemolysis was measured by absorbance at 405 nm with a microplate reader. 100% hemolysis were determined in 2% SDS. The hemolysis percentage was calculated using the following equation: % hemolysis=[(Abs405 nm in the peptide solution−Abs405 nm in peptides solvent)/(Abs405 nm in 2% SDS−Abs405 nm in peptide solvent)]×100.
# Further hemolytic activities of the various peptides of the present invention may be taken from the table depicted in example 3, last row indicated as “Hemolytic activity”. In connection therewith, however, the concentrations are stated where at least 50% hemolysis was observed.
Substance,MIC (>90% inhibition) (Yersinia enterocolitica) [µg/mL],MIC (>90% inhibition) (Escherichia coli (DH5α); DH5α) [µg/mL],MIC (>90% inhibition) (Pseudomonas aeruginosa) [µg/mL],MIC (>90% inhibition) [1] [µg/mL],MIC (>90% inhibition) (Staphylococcus aureus) [µg/mL],MIC (>90% inhibition) [2],"LC, lethal concentration (100% inhibition) [2]",MIC (>90% inhibition) [3] [µg/mL],"LC, lethal concentration (100% inhibition) [3] [µg/mL]",MIC (>90% inhibition) [4],"LC, lethal concentration (100% inhibition) [4]",MIC (>90% inhibition) (Pseudomonas corrugata [5]),"LC, lethal concentration (100% inhibition) (Pseudomonas corrugata [5])",MIC (>90% inhibition) [6],"LC, lethal concentration (100% inhibition) [6]",MIC (>90% inhibition) (Xanthomonas vesicatoria [7]),"LC, lethal concentration (100% inhibition) (Xanthomonas vesicatoria [7])",Minimal inhibition concentration (MIC) for complete inhibition of spore germination/mycelial growth (Botrytis cinerea) [µg/mL],Minimal inhibition concentration (MIC) for complete inhibition of spore germination/mycelial growth (Cladosporium herbarum) [µg/mL],Minimal inhibition concentration (MIC) for complete inhibition of spore germination/mycelial growth (Alternaria alternata) [µg/mL],also measured
LRFLKKALKKLF-NH2 [SP10-2],10,1,1,1,1,0.25/0.25 μg/ml,0.25/0.25 μg/ml,0.1,0.25,0.5/0.5 μg/ml,0.5/0.5 μg/ml,0.5/0.5 μg/ml,0.5/0.5 μg/ml,1.0 µg/mL,2.5 µg/mL,0.25/0.25 μg/ml,0.25/0.25 μg/ml,–,–,–,–
"LRFLKKILKHLF-NH2 [SP10, LRFLKKILKHLF -NH2]",10,10,10,2,5,0.5/0.5 μg/ml,0.5/0.5 μg/ml,0.5,1.0,2.5/2.5 μg/ml,2.5/2.5 μg/ml,0.5 µg/mL,1.0 µg/mL,1.0 µg/mL,2.5 µg/mL,0.5/0.5 μg/ml,0.5/0.5 μg/ml,>100,10,>100,Minimal inhibition concentration (MIC) for complete inhibition of bacterial growth [8]: 10 µg/mL; MIC (>90% inhibition) (Enterobacter cloacae): 20 µg/mL; MIC (>90% inhibition) (Klebsiella pneumoniae): 20 µg/mL; MIC (>90% inhibition) (Klebsiiella oxytoca): 20 µg/mL; Minimal inhibition concentration (MIC) for complete inhibition of bacterial growth [9]: 20 µg/mL; Minimal inhibition concentration (MIC) for complete inhibition of bacterial growth [10]: 10 µg/mL; Minimal inhibition concentration (MIC) for complete inhibition of bacterial growth (Pseudomonas corrugata [11]): 20 µg/mL; Minimal inhibition concentration (MIC) for complete inhibition of bacterial growth [12]: 10 µg/mL; Minimal inhibition concentration (MIC) for complete inhibition of bacterial growth (Xanthomonas vesicatoria [13]): 5 µg/mL
LRKLKKILKKLF-NH2 [SP10-10],–,–,–,–,–,0.25 µg/mL,0.5 µg/mL,0.25,0.5,0.5 µg/mL,1.0 µg/mL,0.25/0.25 μg/ml,0.25/0.25 μg/ml,2.5 µg/mL,5.0 µg/mL,0.1 µg/mL,0.5 µg/mL,–,–,–,"MIC (>90% inhibition) (Yersinia enterocolitica; Yersinia enterocolitica, one day at 27° C., Table 4): >50 µg/mL; MIC (>90% inhibition) (Escherichia coli (DH5α); Escherichia coli (DH5α), one day at 27° C., Table 4): 1 µg/mL; MIC (>90% inhibition) (Pseudomonas aeruginosa; Pseudomonas aeruginosa, one day at 27° C., Table 4): 2 µg/mL; MIC (>90% inhibition) ([1]; Staphylococcus epidermidis, one day at 27° C., Table 4): 1 µg/mL; MIC (>90% inhibition) (Staphylococcus aureus; Staphylococcus aureus, one day at 27° C., Table 4): 10 µg/mL"
LRKAKKIAKKLF-NH2 [SP10-11],–,–,–,–,–,5.0/5.0 μg/ml,5.0/5.0 μg/ml,0.1,0.25,0.5/0.5 μg/ml,0.5/0.5 μg/ml,0.5/0.5 μg/ml,0.5/0.5 μg/ml,>10/>10 μg/ml,>10/>10 μg/ml,0.5 µg/mL,1.0 µg/mL,–,–,–,negative/toxic effect on test cells (HeLa cells) (HeLa cells): No negative/toxic effect; IC50 [14]: 6.8 µM
LLKALKKLLKKLL-NH2 [SP9],–,–,–,–,–,–,–,–,–,–,–,–,–,–,–,–,–,>100,40,>100,"Minimal inhibition concentration (MIC) for complete inhibition of bacterial growth ([8]; Pseudomonas syringae pv. tomato, overnight 25° C., Table 1): 10 µg/mL; Hemolytic activity, concentration where at least 25% hemolysis was observed (human erythrocytes): 50 µg/mL; Minimal inhibition concentration (MIC) for complete inhibition of bacterial growth ([9]; Pectobacterium carotovorum sub. carotovorum, overnight 25° C., Table 1): >40 µg/mL; Minimal inhibition concentration (MIC) for complete inhibition of bacterial growth ([10]; Pseudomonas syringae pv. syringae, overnight 25° C., Table 1): 10 µg/mL; Minimal inhibition concentration (MIC) for complete inhibition of bacterial growth (Pseudomonas corrugata [11]; Pseudomonas corrugata, overnight 25° C., Table 1): >40 µg/mL; Minimal inhibition concentration (MIC) for complete inhibition of bacterial growth [12]: 10 µg/mL; Minimal inhibition concentration (MIC) for complete inhibition of bacterial growth (Xanthomonas vesicatoria [13]; Xanthomonas vesicatoria, overnight 25° C., Table 1): 5 µg/mL"
